Consider 29 compounds from patent publication US8293901B2, “MAPK/ERK kinase inhibitors” (Takeda Pharmaceutical Company Limited, priority 2006, dated 2012).

Structures are written as SMILES. Bounds are passed on as bounds.

This test has as its target MEK1 (Homo sapiens, UniProt Q02750, DEL33-52/S218E/S222D). The test is described as follows: MEK1 inhibition, ERK1/FI-Erktide fluorescence polarization assay with IMAP beads.

MEK1, sequence (Q02750 with tags, fused parts or gaps DEL33-52/S218E/S222D): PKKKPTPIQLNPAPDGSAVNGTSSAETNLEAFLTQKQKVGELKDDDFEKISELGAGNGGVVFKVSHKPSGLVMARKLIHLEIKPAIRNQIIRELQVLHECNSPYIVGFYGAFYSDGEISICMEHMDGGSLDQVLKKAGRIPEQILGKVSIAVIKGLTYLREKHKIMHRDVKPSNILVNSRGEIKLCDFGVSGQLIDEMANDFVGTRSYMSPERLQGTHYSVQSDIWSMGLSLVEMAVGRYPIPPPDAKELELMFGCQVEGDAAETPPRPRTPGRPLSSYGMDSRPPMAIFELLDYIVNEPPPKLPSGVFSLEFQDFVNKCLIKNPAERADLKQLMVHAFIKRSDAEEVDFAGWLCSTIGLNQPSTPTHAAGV

Regarding `CC(O)Cn1cnc2c(c(Nc3ccc(I)cc3F)c(Cl)c(=O)n2C)c1=O` (centres unmarked) [Example 40, 6-Chloro-5-(2-fluoro-4-iodophenylamino)-3-(2-hydroxypropyl)-8-methylpyrido[2,3-d]pyrimidine-4,7(3H,8H)-dione], the IC50 lay within 0.005 to 0.015 µM.

`Cn1c(=O)c(Cl)c(Nc2ccc(I)cc2F)c2c(=O)n(CCO)cnc21` [Example 30, 6-Chloro-5-(2-fluoro-4-iodophenylamino)-3-(2-hydroxyethyl)-8-methylpyrido[2,3-d]pyrimidine-4,7(3H,8H)-dione] came in with an IC50 of no more than 0.005 µM.

Turning to `Cn1c(=O)c(Cl)c(Nc2ccc(Br)cc2F)c2c(=O)n(CCCO)cnc21` [Example 34, 5-(4-Bromo-2-fluorophenylamino)-6-chloro-3-(3-hydroxypropyl)-8-methylpyrido[2,3-d]pyrimidine-4,7(3H,8H)-dione], the IC50 fell in the range of 0.005 to 0.015 µM.

In turn, `Cn1c(=O)cc(Nc2ccc(I)cc2F)c2c(=O)n(CCCO)cnc21` [Example 31, 5-(2-Fluoro-4-iodophenylamino)-3-(3-hydroxypropyl)-8-methylpyrido[2,3-d]pyrimidine-4,7(3H,8H)-dione] returned an IC50 of no more than 0.005 µM.

`Cc1c(Nc2ccc(I)cc2F)c2c(=O)n(C(CO)CO)cnc2n(C)c1=O` [Example 43, 3-(1,3-Dihydroxypropan-2-yl)-5-(2-fluoro-4-iodophenylamino)-6,8-dimethylpyrido[2,3-d]pyrimidine-4,7(3H,8H)-dione]: the IC50 lay in the range of 0.005 to 0.015 µM.

On to `Cn1c(=O)c(Cl)c(Nc2ccc(Br)cc2F)c2c(=O)n(C[C@@H](O)CO)cnc21` [Example 29, (R)-5-(4-Bromo-2-fluorophenylamino)-6-chloro-3-(2,3-dihydroxypropyl)-8-methylpyrido[2,3-d]pyrimidine-4,7(3H,8H)-dione], for which the concentration for half-maximal inhibition (IC50) is 0.005 to 0.015 µM.

On to `CN(C)CCn1cnc2c(c(Nc3ccc(I)cc3F)cc(=O)n2C)c1=O` [Example 37, 3-(2-(Dimethylamino)ethyl)-5-(2-fluoro-4-iodophenylamino)-8-methylpyrido[2,3-d]pyrimidine-4,7(3H,8H)-dione], for which the IC50 was no less than 0.016 µM.

With `Cn1c(=O)c(F)c(Nc2ccc(NS(C)(=O)=O)cc2F)c2c(=O)n(C[C@@H](O)CO)cnc21` [Example 23, (R)—N-(4-(3-(2,3-Dihydroxypropyl)-6-fluoro-8-methyl-4,7-dioxo-3,4,7,8-tetrahydropyrido[2,3-d]pyrimidin-5-ylamino)-3-fluorophenyl)methanesulfonamide], the IC50 is no less than 0.016 µM.

`Cn1c(=O)c(Cl)c(Nc2ccc(I)cc2F)c2c(=O)n(C[C@H](O)CO)cnc21` [Example 7, (S)-6-Chloro-3-(2,3-dihydroxypropyl)-5-(2-fluoro-4-iodophenylamino)-8-methylpyrido[2,3-d]pyrimidine-4,7(3H,8H)-dione] gave an IC50 of no more than 0.005 µM.

Compound `Cc1c(Nc2ccc(Br)cc2F)c2c(=O)n(C[C@@H](O)CO)cnc2n(C)c1=O` [Example 10, (R)-5-(4-Bromo-2-fluorophenylamino)-3-(2,3-dihydroxypropyl)-6,8-dimethylpyrido[2,3-d]pyrimidine-4,7(3H,8H)-dione] registered a half-maximal inhibitory concentration (IC50) of no less than 0.016 µM.

Turning to `Cc1c(Nc2ccc(Br)cc2F)c2c(=O)n(C[C@H](O)CO)cnc2n(C)c1=O` [Example 9, (S)-5-(4-Bromo-2-fluorophenylamino)-3-(2,3-dihydroxypropyl)-6,8-dimethylpyrido[2,3-d]pyrimidine-4,7(3H,8H)-dione], the half-maximal inhibitory concentration (IC50) was no less than 0.016 µM.

For `C#Cc1ccc(Nc2c(C)c(=O)n(C)c3ncn(C[C@H](O)CO)c(=O)c23)c(F)c1` [Example 44, (S)-3-(2,3-Dihydroxypropyl)-5-(4-ethynyl-2-fluorophenylamino)-6,8-dimethylpyrido[2,3-d]pyrimidine-4,7(3H,8H)-dione], the IC50 lay in the range of 0.005 to 0.015 µM.

Consider `Cn1c(=O)c(F)c(Nc2ccc(I)cc2F)c2c(=O)n(OC[C@H](O)CO)cnc21` [Example 28, (R)-3-(2,3-Dihydroxypropoxy)-6-fluoro-5-(2-fluoro-4-iodophenylamino)-8-methylpyrido[2,3-d]pyrimidine-4,7(3H,8H)-dione], for which the IC50 was no more than 0.005 µM.

In turn, `Cn1c(=O)c(F)c(Nc2ccc(I)cc2F)c2c(=O)n(C[C@H](O)CO)cnc21` [Example 19, (S)-3-(2,3-Dihydroxypropyl)-6-fluoro-5-(2-fluoro-4-iodophenylamino)-8-methylpyrido[2,3-d]pyrimidine-4,7(3H,8H)-dione] displayed a concentration for half-maximal inhibition (IC50) of no more than 0.005 µM.

In turn, `C#Cc1ccc(Nc2c(F)c(=O)n(C)c3ncn(C[C@@H](O)CO)c(=O)c23)c(F)c1` [Example 22, (R)-3-(2,3-dihydroxypropyl)-5-(4-ethynyl-2-fluorophenylamino)-6-fluoro-8-methylpyrido[2,3-d]pyrimidine-4,7(3H,8H)-dione] came in with an IC50 of no more than 0.005 µM.

As to `C#Cc1ccc(Nc2c(C)c(=O)n(C)c3ncn(C[C@@H](O)CO)c(=O)c23)c(F)c1` [Example 16, (R)-3-(2,3-Dihydroxypropyl)-5-(4-ethynyl-2-fluorophenylamino)-6,8-dimethylpyrido[2,3-d]pyrimidine-4,7(3H,8H)-dione], the IC50 was in the range of 0.005 to 0.015 µM.

Compound `CC(O)Cn1cnc2c(c(Nc3ccc(I)cc3F)cc(=O)n2C)c1=O` (centres unmarked) [Example 38, 5-(2-Fluoro-4-iodophenylamino)-3-(2-hydroxypropyl)-8-methylpyrido[2,3-d]pyrimidine-4,7(3H,8H)-dione] came in with an IC50 of no less than 0.016 µM.

Compound `COC(=O)Cn1cnc2c(c(Nc3ccc(I)cc3F)cc(=O)n2C)c1=O` [Example 3, Methyl 2-(5-(2-fluoro-4-iodophenylamino)-8-methyl-4,7-dioxo-7,8-dihydropyrido[2,3-d]pyrimidin-3(4H)-yl)acetate] yielded a concentration for half-maximal inhibition (IC50) of no less than 0.016 µM.

For the compound `Cn1c(=O)c(Cl)c(Nc2ccc(Br)cc2Cl)c2c(=O)n(CCCO)cnc21` [Example 36, 5-(4-Bromo-2-chlorophenylamino)-6-chloro-3-(3-hydroxypropyl)-8-methylpyrido[2,3-d]pyrimidine-4,7(3H,8H)-dione], the half-maximal inhibitory concentration (IC50) was no less than 0.016 µM.

The compound `Cc1c(Nc2ccc(I)cc2F)c2c(=O)n(CCO)cnc2n(C)c1=O` [Example 14, 5-(2-Fluoro-4-iodophenylamino)-3-(2-hydroxyethyl)-6,8-dimethylpyrido[2,3-d]pyrimidine-4,7(3H,8H)-dione] had a half-maximal inhibitory concentration (IC50) of no more than 0.005 µM.

Regarding `Cn1c(=O)cc(Nc2ccc(Br)cc2Cl)c2c(=O)n(CCCO)cnc21` [Example 35, 5-(4-Bromo-2-chlorophenylamino)-3-(3-hydroxypropyl)-8-methylpyrido[2,3-d]pyrimidine-4,7(3H,8H)-dione], the 50% inhibitory concentration (IC50) is no less than 0.016 µM.

The compound `Cn1c(=O)c(Cl)c(Nc2ccc(I)cc2F)c2c(=O)n(CCCO)cnc21` [Example 32, 6-Chloro-5-(2-fluoro-4-iodophenylamino)-3-(3-hydroxypropyl)-8-methylpyrido[2,3-d]pyrimidine-4,7(3H,8H)-dione] yielded a half-inhibitory concentration (IC50) of no more than 0.005 µM.

As to `Cc1c(Nc2ccc(Br)cc2F)c2c(=O)n(CCO)cnc2n(C)c1=O` [Example 11, 5-(4-Bromo-2-fluorophenylamino)-3-(2-hydroxyethyl)-6,8-dimethylpyrido[2,3-d]pyrimidine-4,7(3H,8H)-dione], the concentration for half-maximal inhibition (IC50) is no less than 0.016 µM.

Turning to `C#Cc1ccc(Nc2c(F)c(=O)n(C)c3ncn(C[C@H](O)CO)c(=O)c23)c(F)c1` [Example 21, (S)-3-(2,3-Dihydroxypropyl)-5-(4-ethynyl-2-fluorophenylamino)-6-fluoro-8-methylpyrido[2,3-d]pyrimidine-4,7(3H,8H)-dione], the 50% inhibitory concentration (IC50) was 0.005 to 0.015 µM.

In turn, `Cn1c(=O)c(F)c(Nc2ccc(I)cc2F)c2c(=O)n(C[C@@H](O)CO)cnc21` [Example 18, (R)-3-(2,3-Dihydroxypropyl)-6-fluoro-5-(2-fluoro-4-iodophenylamino)-8-methylpyrido[2,3-d]pyrimidine-4,7(3H,8H)-dione] had an IC50 of no more than 0.005 µM.

`Cn1c(=O)c(F)c(Nc2ccc(I)cc2F)c2c(=O)n(C(CO)CO)cnc21` [Example 25, 3-(1,3-Dihydroxypropan-2-yl)-6-fluoro-5-(2-fluoro-4-iodophenylamino)-8-methylpyrido[2,3-d]pyrimidine-4,7(3H,8H)-dione] showed an IC50 of no more than 0.005 µM.

The compound `Cn1c(=O)cc(Nc2ccc(I)cc2F)c2c(=O)n(Cc3ccccc3)cnc21` [Example 42, 3-Benzyl-5-(2-fluoro-4-iodophenylamino)-8-methylpyrido[2,3-d]pyrimidine-4,7(3H,8H)-dione] showed an IC50 of no less than 0.016 µM.

As to `Cn1c(=O)cc(Nc2ccc(Br)cc2F)c2c(=O)n(CCCO)cnc21` [Example 33, 5-(4-Bromo-2-fluorophenylamino)-3-(3-hydroxypropyl)-8-methylpyrido[2,3-d]pyrimidine-4,7(3H,8H)-dione], the IC50 is no less than 0.016 µM.

In turn, `Cc1c(Nc2ccccc2F)c2c(=O)n(CCO)cnc2n(C)c1=O` [Example 15, 5-(2-Fluorophenylamino)-3-(2-hydroxyethyl)-6,8-dimethylpyrido[2,3-d]pyrimidine-4,7(3H,8H)-dione] gave a half-maximal inhibitory concentration (IC50) of no less than 0.016 µM.
